Drawing on US20080045537A1, “Chemical Compounds” (priority 2004, published 2008), this text covers IC50 for 13 compounds.

The test system of the assay is HIV-1 IIIB (T-tropic, CXCR4 utilizing). Nature of the assay: HOS HIV-1 infectivity assay. Format: cell-based. To be noted: Human immunodeficiency virus 1, IIIB; as determined by the infectivity assay; strain not stated in Table 2; read-out: Activity Level. In short, it runs like this: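 Cytotoxicity was measured by CellTiter-Glo in virus-free cultures, while antiviral activity used Steady-Glo luciferase after 96 h infection with T-tropic IIIB virus (~2 million RLU/well). Both used HOS hCXCR4/hCCR5/hCD4/pHIV-LTR-luciferase cells in 2% FCS DMEM, with compound added 1 h before virus.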

Regarding `CCN(Cc1nc2cccc(N3CCN4CCC[C@@H]4C3)c2[nH]1)[C@H]1CCCc2cccnc21` [Example 142, (8S)—N-Ethyl-N-({4-[(8aR)-hexahydropyrrolo[1,2-a]pyrazin-2(1H)-yl]-1H-benzimidazol-2-yl}methyl)-5,6,7,8-tetrahydro-8-quinolinamine], the IC50 was less than 100 nM. With `CCCN(Cc1nc2cccc(N3CCN4CCC[C@@H]4C3)c2[nH]1)[C@H]1CCCc2cccnc21` [Example 143, (8S)—N-({4-[(8aR)-hexahydropyrrolo[1,2-a]pyrazin-2(1H)-yl]-1H-benzimidazol-2-yl}methyl)-N-propyl-5,6,7,8-tetrahydro-8-quinolinamine], the IC50 is less than 100 nM. Consider `CN1C[C@H]2C[C@H](C1)CN(c1cccc3nc(CN(C)[C@H]4CCCc5cccnc54)[nH]c13)C2` [Example 144, (8S)—N-methyl-N-({4-[(1R,5R)-7-methyl-3,7-diazabicyclo[3.3.1]non-3-yl]-1H-benzimidazol-2-yl}methyl)-5,6,7,8-tetrahydro-8-quinolinamine], for which the IC50 is less than 100 nM. For the compound `CN1CCN(c2cccc3nc(CN(C4CC4)C4CCCc5cccnc54)[nH]c23)CC1` (stereo not shown) [Example 145, N-Cyclopropyl-N-{[4-(4-methyl-1-piperazinyl)-1H-benzimidazol-2-yl]methyl}-5,6,7,8-tetrahydro-8-quinolinamine], the IC50 was less than 100 nM.

For the compound `COc1ccc([C@H](C)N(Cc2nc3cccc(N4CCN(C)CC4)c3[nH]2)[C@H]2CCCc3cccnc32)cc1` [Example 146, (8S)—N-{(1S)-1-[4-(methyloxy)phenyl]ethyl}-N-{[4-(4-methyl-1-piperazinyl)-1H-benzimidazol-2-yl]methyl}-5,6,7,8-tetrahydro-8-quinolinamine], the IC50 was less than 100 nM. As for `CN1CCN(c2cccc3nc(CN(CCOCc4ccccc4)[C@H]4CCCc5cccnc54)[nH]c23)CC1` [Example 147], the IC50 is less than 100 nM.

Turning to `CN1CCN(c2cccc3nc(CN(CCO)[C@H]4CCCc5cccnc54)[nH]c23)CC1` [Example 148, 2-{{[4-(4-Methyl-1-piperazinyl)-1H-benzimidazol-2-yl]methyl}[(8S)-5,6,7,8-tetrahydro-8-quinolinyl]amino}ethanol], the IC50 is less than 100 nM. Regarding `CN1CCN(c2cccc3nc(CN(CCCO)[C@H]4CCCc5cccnc54)[nH]c23)CC1` [Example 149, 3-{{[4-(4-Methyl-1-piperazinyl)-1H-benzimidazol-2-yl]methyl}[(8S)-5,6,7,8-tetrahydro-8-quinolinyl]amino}-1-propanol], the IC50 was less than 100 nM. For the compound `CN1CCN(c2cccc3nc(CN(Cc4ccccc4)[C@H]4CCCc5cccnc54)[nH]c23)CC1` [Example 150, (8S)—N-{[4-(4-methyl-1-piperazinyl)-1H-benzimidazol-2-yl]methyl}-N-(phenylmethyl)-5,6,7,8-tetrahydro-8-quinolinamine], the IC50 is less than 100 nM.

With `CN1CCN(c2cccc3c2nc(CN(C)C2CCCc4cccnc42)n3C)CC1` (stereo not shown) [Example 152, N-Methyl-N-{[1-methyl-4-(4-methyl-1-piperazinyl)-1H-benzimidazol-2-yl]methyl}-5,6,7,8-tetrahydro-8-quinolinamine], the IC50 was 100 to 500 nM. In the case of `CN1CCN(c2cccc3nc(CN(C)C4CCCc5cccnc54)n(C)c23)CC1` (stereo not shown) [Example 153, N-Methyl-N-{[1-methyl-7-(4-methyl-1-piperazinyl)-1H-benzimidazol-2-yl]methyl}-5,6,7,8-tetrahydro-8-quinolinamine], the IC50 is less than 100 nM.

With `CCN(Cc1nc2cccc(N3CCN(C)CC3)c2n1C)C1CCCc2cccnc21` (stereo not shown) [Example 154, N-Ethyl-N-{[1-methyl-7-(4-methyl-1-piperazinyl)-1H-benzimidazol-2-yl]methyl}-5,6,7,8-tetrahydro-8-quinolinamine], the IC50 was less than 100 nM. In the case of `CCCN(Cc1nc2cccc(N3CCN(C)CC3)c2n1C)C1CCCc2cccnc21` (stereo not shown) [Example 155, N-{[1-Methyl-7-(4-methyl-1-piperazinyl)-1H-benzimidazol-2-yl]methyl}-N-propyl-5,6,7,8-tetrahydro-8-quinolinamine], the IC50 is less than 100 nM.
